According to ChEMBL document CHEMBL1240505, “Studies on preparation and photodynamic mechanism of chlorin P6-13,15-N-(cyclohexyl)cycloimide (Chlorin-H) and its antitumor effect for photodynamic therapy in vitro and in vivo” (Bioorg Med Chem, 2010):
The source made the active and inactive calls. The calls are words filed in the database; no cut-off is given here.

Columns and labels:
A549 [1] = experiment: Induction of apoptosis in human A549 cells assessed as down regulation of […] mRNA expression at 4 uM after 24 hrs followed by irradiated with light dose 0.18 J/cm2 by RT-PCR analysis; assay type: functional, cell-based
A549 [2] = experiment: Inhibition of cell invasion in human A549 cells assessed as invasion index at 4 uM after 72 hrs relative to control; assay type: functional; settings: A549, 72 h
A549 [3] = experiment: Cell cycle arrest in human A549 cells assessed as accumulation at G0/G1 phase at 4 uM after 24 hrs by flow cytometry; assay type: functional
A549 [4] = experiment: Induction of apoptosis in human A549 cells assessed as pre-necrotic cells at 4 uM after 24 hrs using annexin-V-PE/7-AAD double staining by flow cytometry; assay type: functional
A549 [5] = experiment: Induction of apoptosis in human A549 cells assessed as apoptotic cells at 4 uM after 24 hrs using annexin-V FITC/PI double staining by flow cytometry; assay type: functional
A549 [6] = experiment: Cell cycle arrest in human A549 cells assessed as accumulation at S phase at 4 uM after 24 hrs followed by irradiated with light dose 0.18 J/cm2 by flow cytometry; assay type: functional
[7] = Drug uptake in human U87 cell mitochondria by using Hoechst 33258 staining; assay type: ADME; settings: u-87mg atcc
SGC-7901 = experiment: Cytotoxicity against human SGC7901 cells assessed as cell death at 4 uM after 24 hrs followed by irradiated with light dose 0.18 J/cm2 by MTT assay; assay type: functional, cell-based
[8] = Drug uptake in human U87 cell nucleus by using Hoechst 33258 staining; assay type: ADME, cell-based; settings: u-87mg atcc
A549 [9] = experiment: Induction of apoptosis in human A549 cells assessed as live mitochondrial membrane depolarized cells at 4 uM after 24 hrs followed by irradiated with light dose 0.18 J/cm2 using JC-1 staining by flow cytometry; assay type: functional
A549 [10] = experiment: Induction of apoptosis in human A549 cells assessed as dying mitochondrial membrane depolarized cells at 4 uM after 24 hrs followed by irradiated with light dose 0.18 J/cm2 using JC-1 staining by flow cytometry; assay type: functional
A549 [11] = experiment: Induction of apoptosis in human A549 cells assessed as late apoptotic cells at 4 uM after 24 hrs followed by irradiated with light dose 0.18 J/cm2 using annexin-V FITC/PI double staining by flow cytometry; assay type: functional
HL-60 = experiment: Cytotoxicity against human HL60 cells assessed as cell death at 4 uM after 24 hrs followed by irradiated with light dose 0.18 J/cm2 by MTT assay; assay type: functional, cell-based
A549 [12] = experiment: Induction of apoptosis in human A549 cells assessed as pre-necrotic cells at 4 uM after 24 hrs followed by irradiated with light dose 0.18 J/cm2 using annexin-V-PE/7-AAD double staining by flow cytometry; assay type: functional
AGS = experiment: Cytotoxicity against human AGS cells assessed as cell death at 4 uM after 24 hrs followed by irradiated with light dose 0.18 J/cm2 by MTT assay; assay type: functional, cell-based
A549 [13] = experiment: Antitumor activity against human A549 cells xenografted in nude BALB/C mouse assessed as hardened tumor at 8 uM after 24 hrs followed by irradiated with light dose 78 J/cm2 measured after 10 days; assay type: functional, cell-based
A549 [14] = experiment: Induction of apoptosis in human A549 cells assessed as late apoptotic cells at 4 uM after 24 hrs followed by irradiated with light dose 0.18 J/cm2 using annexin-V-PE/7-AAD double staining by flow cytometry; assay type: functional
A549 [15] = experiment: Induction of apoptosis in human A549 cells assessed as viable cells at 4 uM after 24 hrs followed by irradiated with light dose 0.18 J/cm2 using annexin-V-PE/7-AAD double staining by flow cytometry; assay type: functional; settings: A549, light or radiation study, read-out: Activity
A549 [16] = experiment: Induction of apoptosis in human A549 cells transfected with lentivirus p53-siRNA assessed as reduction of p53 mRNA level at 4 uM after 24 hrs followed by irradiated with light dose 0.18 J/cm2 by MTT assay; assay type: functional; set-up: scale not given: the % may be the effect or the level left
A549 [17] = experiment: Induction of apoptosis in human A549 cells assessed as apoptotic cells at 4 uM after 24 hrs followed by irradiated with light dose 0.18 J/cm2 using annexin-V-PE/7-AAD double staining by flow cytometry; assay type: functional
A549 [18] = experiment: Cell cycle arrest in human A549 cells assessed as accumulation at G2/M phase at 4 uM after 24 hrs by flow cytometry; assay type: functional
A549 [19] = experiment: Cytotoxicity against human A549 cells assessed as cell death at 4 uM after 24 hrs followed by irradiated with light dose 0.18 J/cm2 by MTT assay; assay type: functional, cell-based
A549 [20] = experiment: Antitumor activity against human A549 cells xenografted in nude BALB/C mouse assessed as scab formation at 8 uM after 24 hrs followed by irradiated with light dose 78 J/cm2 measured after 20 days; assay type: functional, cell-based
A549 [21] = experiment: Induction of apoptosis in human A549 cells assessed as viable cells at 4 uM after 24 hrs followed by irradiated with light dose 0.18 J/cm2 using annexin-V FITC/PI double staining by flow cytometry; assay type: functional; settings: A549, light or radiation study, read-out: Activity
A549 [22] = experiment: Induction of apoptosis in human A549 cells transfected with lentivirus GFP assessed as reduction of GFP mRNA level at 4 uM after 24 hrs followed by irradiated with light dose 0.18 J/cm2 by MTT assay; assay type: functional; set-up: scale not given: the % may be the effect or the level left
A549 [23] = experiment: Induction of apoptosis in human A549 cells assessed as viable cells at 4 uM after 24 hrs using annexin-V FITC/PI double staining by flow cytometry; assay type: functional; settings: A549, 24 h, read-out: Activity
A549 [24] = experiment: Cell cycle arrest in human A549 cells assessed as accumulation at G0/G1 phase at 4 uM after 24 hrs followed by irradiated with light dose 0.18 J/cm2 by flow cytometry; assay type: functional
A549 [25] = experiment: Induction of apoptosis in human A549 cells assessed as late apoptotic cells at 4 uM after 24 hrs using annexin-V-PE/7-AAD double staining by flow cytometry; assay type: functional
A549 [26] = experiment: Induction of apoptosis in human A549 cells assessed as live mitochondrial membrane polarized cells at 4 uM after 24 hrs followed by irradiated with light dose 0.18 J/cm2 using JC-1 staining by flow cytometry; assay type: functional
A549 [27] = experiment: Inhibition of cell invasion in human A549 cells assessed as invasion index at 4 uM after 72 hrs followed by irradiated with light dose 0.18 J/cm2 relative to control; assay type: functional; settings: A549, light or radiation study
A549 [28] = experiment: Induction of apoptosis in human A549 cells assessed as upregulation of Smac mRNA expression at 4 uM after 24 hrs followed by irradiated with light dose 0.18 J/cm2 by RT-PCR analysis; assay type: functional, cell-based

C=Cc1c(C)c2cc3nc(c4c5[nH]c(cc6nc(cc1[nH]2)C(C)=C6CC)c(C)c5C(=O)N(C1CCCCC1)C4=O)[C@@H](CCC(=O)O)[C@@H]3C
Activity (A549 [1]): Active
inhibition at 4 µM (A549 [2]): 76.4%
Activity (A549 [3]): 53.48%
Activity (A549 [4]): 0.41%
Activity (A549 [5]): 0.99%
Activity (A549 [6]): 21.56%
Drug uptake [7]: Active
Activity (SGC-7901): Active
Drug uptake [8]: Active
Activity (A549 [9]): 0.01%
Activity (A549 [10]): 8.28%
Activity (A549 [11]): 23.28%
Activity (HL-60): Active
Activity (A549 [12]): 7.63%
Activity (AGS): Active
Activity (A549 [13]): Active
Activity (A549 [14]): 27.71%
viability at 4 µM (A549 [15]): 9.32%
Activity (A549 [16]): 60%
Activity (A549 [17]): 55.33%
Activity (A549 [18]): 11.07%
Activity (A549 [19]): Active
Activity (A549 [20]): Active
viability at 4 µM (A549 [21]): 2.08%
Activity (A549 [22]): 18.8%
viability at 4 µM (A549 [23]): 92.3%
Activity (A549 [24]): 22.37%
Activity (A549 [25]): 3.6%
Activity (A549 [26]): 0.01%
inhibition at 4 µM (A549 [27]): 15.7%
Activity (A549 [28]): Active
